Assay results reported in patent US12662465B2, “EGFR inhibitors” (Blueprint Medicines Corporation, priority 2021, dated 2026).

Legend:
EGFR enzyme = biological target: T1, EGFR enzyme (Homo sapiens, UniProt P00533); assay: Biochemical EGFR inhibition assays (Biological Example 1), enzyme form not specified; details: Biological Example/Assay 1; read-out: inhibitory activity
T1 construct: From knowledge only, the SignalChem E10-1xx 'G' products are GST-tagged cytoplasmic-domain constructs

EGFR M+ NSCLC patients = details: first line (1L), NSCLC harboring del19 and L858R mutations; cited from earlier work
EGFR (d746-750) = biological target: T2, EGFR (d746-750) (Homo sapiens, UniProt P00533, DEL746-750); assay: Biochemical EGFR inhibition assay (Caliper mobility shift), EGFR (d746-750); details: read-out: Enz EGFR_Exon19-del746-750 IC50
T2 construct: purchased SignalChem E10-122JG

[1] = biological target: intracellular phosphorylation of EGFR (Tyr1068) in PC-9 cells (Ex19Del) (Homo sapiens, UniProt P00533, DEL746-750); assay: PC-9 pEGFR AlphaLISA assay; format: cell-based; details: 4 hours compound incubation, read-out: Ext pEGFR_PC-9 Ex19Del IC50
EGFR L858R = biological target: T3, EGFR L858R (Homo sapiens, UniProt P00533, L858R); assay: Biochemical EGFR inhibition assay (Caliper mobility shift), EGFR L858R; details: read-out: Enz EGFR_L858R IC50
T3 construct: purchased SignalChem E10-122BG
T3 sequence (P00533 25-1210 L858R): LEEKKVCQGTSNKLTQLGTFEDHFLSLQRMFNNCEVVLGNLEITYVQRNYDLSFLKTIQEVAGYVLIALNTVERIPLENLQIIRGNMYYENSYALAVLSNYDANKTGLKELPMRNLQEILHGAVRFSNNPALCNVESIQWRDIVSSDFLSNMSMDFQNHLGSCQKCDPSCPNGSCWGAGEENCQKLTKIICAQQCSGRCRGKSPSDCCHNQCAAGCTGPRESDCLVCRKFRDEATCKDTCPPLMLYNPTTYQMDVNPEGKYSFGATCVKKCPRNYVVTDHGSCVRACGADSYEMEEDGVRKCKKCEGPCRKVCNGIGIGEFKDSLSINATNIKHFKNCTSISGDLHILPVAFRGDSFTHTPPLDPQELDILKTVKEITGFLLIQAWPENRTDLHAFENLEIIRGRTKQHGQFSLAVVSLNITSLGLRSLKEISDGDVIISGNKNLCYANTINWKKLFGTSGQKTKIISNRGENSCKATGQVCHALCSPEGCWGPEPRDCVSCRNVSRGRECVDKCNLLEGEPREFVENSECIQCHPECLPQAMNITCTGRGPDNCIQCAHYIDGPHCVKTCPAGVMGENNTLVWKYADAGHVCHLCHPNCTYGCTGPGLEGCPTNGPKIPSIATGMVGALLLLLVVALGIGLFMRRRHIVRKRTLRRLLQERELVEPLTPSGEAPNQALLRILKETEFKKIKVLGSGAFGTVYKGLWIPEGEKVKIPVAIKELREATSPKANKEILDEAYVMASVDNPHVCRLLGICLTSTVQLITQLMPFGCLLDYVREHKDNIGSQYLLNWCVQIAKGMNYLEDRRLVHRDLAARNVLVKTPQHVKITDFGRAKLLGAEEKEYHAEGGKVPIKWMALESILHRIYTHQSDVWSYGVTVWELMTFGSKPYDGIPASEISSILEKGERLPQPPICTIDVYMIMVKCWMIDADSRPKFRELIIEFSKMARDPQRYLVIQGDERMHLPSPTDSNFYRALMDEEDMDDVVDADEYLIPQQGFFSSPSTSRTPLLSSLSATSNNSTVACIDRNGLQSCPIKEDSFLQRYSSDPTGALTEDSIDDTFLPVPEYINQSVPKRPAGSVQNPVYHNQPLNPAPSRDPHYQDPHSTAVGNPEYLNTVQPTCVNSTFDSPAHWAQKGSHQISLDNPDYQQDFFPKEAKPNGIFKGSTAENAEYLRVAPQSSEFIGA

T1 sequence (P00533 whole entry L858R, form open): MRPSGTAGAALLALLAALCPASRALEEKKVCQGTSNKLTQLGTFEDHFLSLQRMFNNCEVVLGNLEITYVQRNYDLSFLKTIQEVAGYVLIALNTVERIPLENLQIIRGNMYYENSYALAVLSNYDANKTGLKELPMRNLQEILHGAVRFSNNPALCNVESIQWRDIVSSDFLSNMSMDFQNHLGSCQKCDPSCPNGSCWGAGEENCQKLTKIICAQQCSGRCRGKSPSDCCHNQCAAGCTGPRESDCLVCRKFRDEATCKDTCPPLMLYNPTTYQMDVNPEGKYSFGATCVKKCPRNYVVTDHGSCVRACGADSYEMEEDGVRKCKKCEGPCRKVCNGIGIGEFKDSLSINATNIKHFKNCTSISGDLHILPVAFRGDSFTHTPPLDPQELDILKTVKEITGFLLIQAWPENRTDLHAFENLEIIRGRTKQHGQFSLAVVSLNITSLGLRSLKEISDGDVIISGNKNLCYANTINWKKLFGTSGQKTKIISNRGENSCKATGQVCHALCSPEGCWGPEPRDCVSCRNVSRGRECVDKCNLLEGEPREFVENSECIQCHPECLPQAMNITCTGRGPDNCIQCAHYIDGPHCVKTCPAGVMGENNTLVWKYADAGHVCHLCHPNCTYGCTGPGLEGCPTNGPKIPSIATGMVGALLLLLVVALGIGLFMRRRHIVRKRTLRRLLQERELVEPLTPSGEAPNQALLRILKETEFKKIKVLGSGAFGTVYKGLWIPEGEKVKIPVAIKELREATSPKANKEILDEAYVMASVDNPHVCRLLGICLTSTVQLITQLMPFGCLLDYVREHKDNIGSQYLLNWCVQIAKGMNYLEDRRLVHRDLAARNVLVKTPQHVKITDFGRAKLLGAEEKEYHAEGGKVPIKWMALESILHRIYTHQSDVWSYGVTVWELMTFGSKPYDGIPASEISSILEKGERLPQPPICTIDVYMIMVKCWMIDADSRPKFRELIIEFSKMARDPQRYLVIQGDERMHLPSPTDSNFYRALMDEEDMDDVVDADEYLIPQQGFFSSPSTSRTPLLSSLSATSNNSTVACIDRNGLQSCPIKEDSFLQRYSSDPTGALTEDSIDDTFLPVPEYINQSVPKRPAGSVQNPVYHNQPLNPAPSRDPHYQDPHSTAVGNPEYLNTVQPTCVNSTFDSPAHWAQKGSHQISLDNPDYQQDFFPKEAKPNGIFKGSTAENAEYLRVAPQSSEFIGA
Chain of intracellular phosphorylation of EGFR (Tyr1068) in PC-9 cells (Ex19Del) (P00533 with tags, fused parts or gaps DEL746-750): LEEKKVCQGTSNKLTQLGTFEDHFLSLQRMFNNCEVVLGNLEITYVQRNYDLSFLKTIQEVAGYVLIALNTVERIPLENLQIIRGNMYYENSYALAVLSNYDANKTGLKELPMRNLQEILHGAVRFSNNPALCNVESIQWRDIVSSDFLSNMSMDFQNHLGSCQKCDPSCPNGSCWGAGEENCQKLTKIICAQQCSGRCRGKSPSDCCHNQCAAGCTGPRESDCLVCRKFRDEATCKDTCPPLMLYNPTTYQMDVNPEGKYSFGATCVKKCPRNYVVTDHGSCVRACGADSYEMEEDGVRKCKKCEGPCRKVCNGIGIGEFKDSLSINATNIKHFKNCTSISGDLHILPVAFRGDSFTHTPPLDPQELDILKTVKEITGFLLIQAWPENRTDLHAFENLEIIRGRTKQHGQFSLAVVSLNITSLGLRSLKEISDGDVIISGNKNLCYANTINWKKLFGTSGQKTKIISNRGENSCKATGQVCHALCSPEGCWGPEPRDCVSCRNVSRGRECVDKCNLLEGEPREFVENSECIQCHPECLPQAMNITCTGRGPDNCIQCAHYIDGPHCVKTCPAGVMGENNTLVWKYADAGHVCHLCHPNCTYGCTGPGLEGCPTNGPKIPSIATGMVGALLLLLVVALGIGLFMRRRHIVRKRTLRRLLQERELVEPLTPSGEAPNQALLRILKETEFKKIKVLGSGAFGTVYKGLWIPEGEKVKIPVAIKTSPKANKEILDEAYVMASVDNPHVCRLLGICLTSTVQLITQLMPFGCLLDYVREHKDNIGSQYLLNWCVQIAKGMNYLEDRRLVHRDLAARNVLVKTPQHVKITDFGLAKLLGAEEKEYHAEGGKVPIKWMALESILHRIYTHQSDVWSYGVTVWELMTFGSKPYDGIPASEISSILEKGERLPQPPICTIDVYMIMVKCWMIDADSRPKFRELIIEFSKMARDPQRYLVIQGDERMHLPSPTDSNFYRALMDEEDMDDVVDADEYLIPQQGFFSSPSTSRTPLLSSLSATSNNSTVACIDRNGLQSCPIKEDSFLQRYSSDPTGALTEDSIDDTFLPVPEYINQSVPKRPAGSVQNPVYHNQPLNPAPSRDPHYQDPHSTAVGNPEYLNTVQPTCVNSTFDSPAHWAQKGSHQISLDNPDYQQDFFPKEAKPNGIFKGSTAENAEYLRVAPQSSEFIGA
T2 sequence (P00533 with tags, fused parts or gaps DEL746-750 limits assumed): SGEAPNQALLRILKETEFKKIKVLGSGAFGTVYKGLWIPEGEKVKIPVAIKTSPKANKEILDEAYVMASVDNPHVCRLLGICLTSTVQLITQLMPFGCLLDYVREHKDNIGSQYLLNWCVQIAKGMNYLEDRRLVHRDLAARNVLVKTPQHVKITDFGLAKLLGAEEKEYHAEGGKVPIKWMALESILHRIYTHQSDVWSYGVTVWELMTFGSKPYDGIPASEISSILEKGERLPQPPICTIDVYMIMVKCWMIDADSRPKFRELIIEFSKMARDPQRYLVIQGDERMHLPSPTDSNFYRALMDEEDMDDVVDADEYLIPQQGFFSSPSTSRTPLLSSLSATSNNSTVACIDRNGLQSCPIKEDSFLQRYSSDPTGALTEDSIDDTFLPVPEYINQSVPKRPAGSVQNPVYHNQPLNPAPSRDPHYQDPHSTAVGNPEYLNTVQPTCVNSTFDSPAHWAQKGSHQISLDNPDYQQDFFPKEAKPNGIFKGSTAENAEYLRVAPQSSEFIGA

## [2H]c1c(-c2cc(O[C@H](C)CN(C)C)c3c(Nc4ccc5ncccc5c4OC([2H])([2H])[2H])ncnc3c2)cnn1C
EGFR enzyme
  IC50: > 10000 nM

## C=CC(=O)Nc1cc(Nc2nccc(-c3cn(C)c4ccccc34)n2)c(OC)cc1N(C)CCN(C)C [osimertinib]
EGFR M+ NSCLC patients
  progression-free survival (PFS): 18.9 mo

## C[C@H](CN(C)C)Oc1cc(-c2cnn(C)c2)cc2ncnc(Nc3cc(F)c4ncccc4c3F)c12 [Example 10, (R)—N-(5,8-difluoroquinolin-6-yl)-5-((1-(dimethylamino)propan-2-yl)oxy)-7-(1-methyl-1H-pyrazol-4-yl)quinazolin-4-amine]
EGFR (d746-750)
  IC50: < 10 nM
[1]
  IC50: ≤ 10 nM
EGFR L858R
  IC50: < 10 nM
